Data published in patent publication US6447748B1, “Benzamide compounds for cancer imaging and therapy” (Research Corporation Technologies, Inc., priority 1993, dated 2002).

Test: Biodistribution of 2-[125I]BP and 3-[125I]BP in Sprague Dawley rats
Assay type: in vivo
Settings: for Biodistribution Blood / Biodistribution Brain / Biodistribution Heart / Biodistribution Kidney / Biodistribution Liver / Biodistribution Lung / Biodistribution Muscle / Biodistribution Spleen / Biodistribution Thyroid: average of four rats
Method: A similar procedure was performed with 2-[^125I]BP and 3-[^125I]BP but blood samples were only collected at 1, 6 and 24 hours.

Biodistribution Blood (1 hr.): 2.06 ± 0.42 % ID/whole organ
Biodistribution Brain (1 hr.): 0.48 ± 0.12 % ID/whole organ
Biodistribution Heart (1 hr.): 0.17 ± 0.03 % ID/whole organ
Biodistribution Kidney (1 hr.): 1.68 ± 0.08 % ID/whole organ
Biodistribution Liver (1 hr.): 22.36 ± 1.29 % ID/whole organ
Biodistribution Lung (1 hr.): 1.06 ± 0.21 % ID/whole organ
Biodistribution Muscle (1 hr.): 16.15 ± 2.13 % ID/whole organ
Biodistribution Spleen (1 hr.): 0.32 ± 0.07 % ID/whole organ
Biodistribution Thyroid (1 hr.): 0.14 ± 0.04 % ID/whole organ
Biodistribution Blood (6 hr.): 1.30 ± 0.12 % ID/whole organ
Biodistribution Brain (6 hr.): 0.05 ± 0.01 % ID/whole organ
Biodistribution Heart (6 hr.): 0.05 ± 0.00 % ID/whole organ
Biodistribution Kidney (6 hr.): 0.39 ± 0.06 % ID/whole organ
Biodistribution Liver (6 hr.): 6.07 ± 0.18 % ID/whole organ
Biodistribution Lung (6 hr.): 0.21 ± 0.02 % ID/whole organ
Biodistribution Muscle (6 hr.): 6.75 ± 0.32 % ID/whole organ
Biodistribution Spleen (6 hr.): 0.12 ± 0.01 % ID/whole organ
Biodistribution Thyroid (6 hr.): 1.91 ± 0.23 % ID/whole organ
Biodistribution Blood (24 hr.): 0.50 ± 0.05 % ID/whole organ
Biodistribution Brain (24 hr.): 0.01 ± 0.00 % ID/whole organ
Biodistribution Heart (24 hr.): 0.01 ± 0.00 % ID/whole organ
Biodistribution Kidney (24 hr.): 0.05 ± 0.01 % ID/whole organ
Biodistribution Liver (24 hr.): 0.59 ± 0.02 % ID/whole organ
Biodistribution Lung (24 hr.): 0.04 ± 0.00 % ID/whole organ
Biodistribution Muscle (24 hr.): 1.95 ± 0.11 % ID/whole organ
Biodistribution Spleen (24 hr.): 0.02 ± 0.00 % ID/whole organ
Biodistribution Thyroid (24 hr.): 2.11 ± 0.35 % ID/whole organ
Compound: O=C(NC1CCN(Cc2ccccc2)CC1)c1ccccc1[125I] [2-[^125I]BP, ^125I-(N-benzylpiperidin-4-yl)-2-iodobenzamide]
clearance: fast clearance from the blood and normal organs
